The source of these data is US20080306073A1, “Antitumor Effect Potentiator, Antitumor Preparation, and Method for Treating Cancer” (priority 2005, published 2008).

Molecules are shown by their SMILES. Where two headings read alike, the source gives them in different places. Marks after values point to notes of the source that are not given here.

The subject of data set [1] is 5-FU decomposition. The settings on record: compared with uracil; cited from earlier work.
The subject of data set [2] is human colon cancer xenograft COL-1 strain. The data set can be described thus: Preliminary test: maximum tolerable dose of capecitabine (Pharmacological Test Example 5). The settings on record: capecitabine po once a day 14 days at 240, 360 or 540 mg/kg with l-OHP 4.2 mg/kg/day iv days 1 and 8. It counts as in vivo, male nude mice BALB/c-nu/nu.
Method: A fragment measuring about 2 mm cubic fragment of the human colon cancer xenograft COL-1 strain was subcutaneously implanted on the backs of male nude mice BALB/c-nu/nu. When the average tumor volume (=0.5×major axis (mm)×minor axis (mm)^2) reached about 190 mm^3, the mice were divided into groups (day 0). Capecitabine suspended in 0.5% HPMC solution was orally administered to the mice once a day at 240, 360, or 540 mg/kg from the day after grouping for 14 consecutive days. l-OHP dissolved in 5% aqueous glucose solution was administered into the tail vein on days 1 and 8 at 4.2 mg/kg/day immediately before the administration of the Capecitabine. The difference in body weight between the mice on day 0 and the mice on day 15 presented as a ratio and the occurrence of death were used as indices of systemic toxicity of capecitabine.
Data set [3] deals with 5-FU-resistant strain of the human colon cancer xenograft KM12C strain. Put plainly: Action toward a 5-FU-resistant strain (Pharmacological Test Example 2). Conditions: TS-1 8.3 mg/kg/day as tegafur po 9 days, l-OHP 8.3 mg/kg iv day 1.
Method: A fragment measuring about 2 mm cubic fragment of a 5-FU-resistant strain of the human colon cancer xenograft KM12C strain established by the applicant was subcutaneously implanted on the backs of male nude mice BALB/c-nu/nu. When the average tumor volume (=0.5×major axis (mm)×minor axis (mm)^2) reached about 200 mm^3, the mice were divided into groups (day 0). […] The ratio of the tumor volume on day 0 to the tumor volume on day 10 was calculated to obtain a relative tumor volume.
Data set [4] deals with human colon cancer xenograft KM20C strain. The data set can be described thus: Antitumor effect on human colon cancer xenograft KM20C in nude rats (Pharmacological Test Example 1). Conditions: TS-1 12 or UFT 24 mg/kg/day as tegafur (+ LV 20) po 14 days, l-OHP 10 mg/kg iv day 1.
From the text: A tegafur/gimeracil/oteracil potassium compound pharmaceutical agent (tegafur/gimeracil/oteracil potassium molar ratio=1:0.4:1, hereinafter sometimes referred to as TS-1), a tegafur/uracil compound pharmaceutical agent (tegafur/uracil molar ratio=1:4, hereinafter sometimes referred to as UFT), and d,l-calcium folinate were independently dissolved or suspended in 0.5% hydroxypropylmethyl cellulose (HPMC) solutions, and pharmaceutical preparations were formulated so as to allow administration thereof in a final dosage of 10 mL/kg.
l-OHP was dissolved in 5% aqueous glucose solution (Otsuka Glucose, manufactured by Otsuka Pharmaceutical Factory Inc.), thereby giving an l-OHP preparation.
A fragment measuring about 2 mm cubic fragment of the human colon cancer xenograft KM20C strain was subcutaneously implanted on the backs of male nude rats F344/NJcl-rnu. When the average tumor volume (=0.5×major axis (mm)×minor axis (mm)^2) reached about 200 mm^3, the rats were divided into groups (day 0).
The TS-1 preparation or the UFT+LV preparation prepared above was orally administered once a day in amounts presented in Table 1 from the day after grouping (day 1) for 14 consecutive days. The l-OHP preparation was administered into the tail vein on day 1 at 10 mg/kg immediately before the administration of the aforementioned preparations.
The ratio of the tumor volume upon grouping (day 0) to the tumor volume on day 15 was regarded as the relative tumor volume: Tumor volume on day 15/Tumor volume on day 0
The extent of tumor growth inhibition (%) was calculated using the average relative tumor volume of the drug-administered groups and the average relative tumor volume of the control group:
[1−(Relative tumor volume of drug-administered group)/(Relative tumor volume of tumor-bearing control group)]×100 (%)
The difference in body weight between rats on day 0 and rats on day 15 presented as a ratio (extent of body weight change) was used as an index of systemic toxicity of the pharmaceutical preparation: […]
Data set [5] deals with human colon cancer xenograft COL-1 strain. Conditions: TS-1 where given 6.9 mg/kg as tegafur po 14 days; for Relative tumor volume (Mean): day 15/day 0; for Extent of tumor growth inhibition (%): day 15; for Extent of body weight change (%): day 15 vs day 0.
Method: A fragment measuring about 2 mm cubic fragment of the human colon cancer xenograft COL-1 strain was subcutaneously implanted on the backs of male nude mice BALB/c-nu/nu. When the average tumor volume (=0.5×major axis (mm)×minor axis (mm)^2) reached about 125 mm^3, the mice were divided into groups (day 0).
For the determination of antitumor effect, the ratio of the tumor volume upon grouping (day 0) to the tumor volume on day 15 was calculated to obtain a relative tumor volume. The extent of tumor growth inhibition was determined using the average relative tumor volumes of the drug-administered groups and the control group.
The extent of body weight change between the mice on day 0 and the mice on day 15 was used as an index of systemic toxicity of l-OHP.
Data set [6] has the same test system. Conditions: l-OHP into the tail vein on days 1 and 8.
Method: A fragment measuring about 2 mm cubic fragment of the human colon cancer xenograft COL-1 strain was subcutaneously implanted on the backs of male nude mice BALB/c-nu/nu. When the average tumor volume (=0.5×major axis (mm)×minor axis (mm)^2) reached about 170 mm^3, the mice were divided into groups (day 0).
For the determination of antitumor effect, the ratio of the tumor volume upon grouping (day 0) to the tumor volume on day 15 was calculated to obtain a relative tumor volume. The extent of tumor growth inhibition was determined using the average relative tumor volumes of the drug-administered groups and the control group. Using the relative tumor volumes on the test day, the statistical significance of the difference in relative tumor volume between the control group and the one which was given the pharmaceutical agents was analyzed according to a Dunnett's test; and the statistical significance of the difference in relative tumor volume between the one which was given TS-1 and l-OHP in combination and the one which was given capecitabine and l-OHP in combination was analyzed according to Student's t-test. The extent of body weight change between the mice on day 0 and the mice on day 15 was used as an index of systemic toxicity of the pharmaceutical preparations.
Data set [7] has as its system human colon cancer xenograft HCT-15 strain. Put plainly: Action toward a multidrug-resistant strain (Pharmacological Test Example 3). It counts as in vivo, male nude mice BALB/c-nu/nu.
From the text: A fragment measuring about 2 mm cubic fragment of the human colon cancer xenograft HCT-15 strain, which expresses P-glycoprotein in large amounts and is resistant to multiple drugs, was subcutaneously implanted on the backs of male nude mice BALB/c-nu/nu. When the average tumor volume (=0.5×major axis (mm)×minor axis (mm)^2) reached about 200 mm^3, the mice were divided into groups (day 0). A TS-1 preparation as prepared in Pharmacological Test Example 1 was orally administered to the mice once a day in an amount as shown in Table 3 from day 1 for 14 consecutive days. The l-OHP preparation was administered only once into the tail vein on day 1 at 10.0 mg/kg immediately before the administration of the TS-1 preparation. The extent of tumor growth inhibition was calculated as in Pharmacological Test Example 1. Using the relative tumor volumes on day 15, the difference in relative tumor volume between the control group and the drug-administered groups was determined according to a Dunnett's test, and the difference between the one which was given either TS-1 or l-OHP and the one which was given TS-1 and l-OHP in combination was evaluated according to Student's t-test.
The mark [8] stands for this setting: l-OHP 2.9 mg/kg iv days 1 and 8.
Where [9] appears, read: l-OHP 3.5 mg/kg iv days 1 and 8.
Setting [10] is: l-OHP 4.2 mg/kg iv days 1 and 8.
[11] abbreviates: l-OHP 5.0 mg/kg iv days 1 and 8.

On to `Oc1cc(O)c(Cl)cn1` [gimeracil, 2,4-dihydroxy-5-chloropyridine], for which the “5-FU decomposition inhibitory action relative to that of uracil” value in data set [1] is reported as “about 200 times”.
`CCCCCOC(=O)Nc1nc(=O)n([C@@H]2O[C@H](C)[C@@H](O)[C@H]2O)cc1F` [capecitabine]: the “maximum tolerable dose at which death due to toxicity is not observed” value in data set [2] is on record as 360 mg/kg/day.
Regarding `O=C([O-])C(=O)[O-].[NH-][C@@H]1CCCC[C@H]1[NH-].[Pt+4]` (relative stereo) [l-OHP, cis-oxalate(1R,2R-diaminocyclohexane)platinum(II)], the “Relative tumor volume (Mean)” value in data set [3] (day 10/day 0) is 7.97; in data set [4] (day 15/day 0), 4.64; in data set [5] (setting [8]), 5.06 ^§; in data set [5] (setting [9]) it was 4.54 ^§, *; in data set [5] (setting [10]), 4.43 ^§, **; in data set [5] (setting [11]), 4.41 ^§, **. Further, the “Relative tumor volume (Mean)” value in data set [7] (day 15/day 0, TS-1 10 mg/kg/day as tegafur po 14 days, l-OHP 10 mg/kg iv once day 1) is recorded as 4.33. Besides, the “Extent of tumor growth inhibition (%)” value was determined as 16.1% in data set [3] (day 10); 20.1% in data set [4] (day 15); 11.9% in data set [5] (setting [8]); 21.0% in data set [5] (setting [9]); 23.0% in data set [5] (setting [10]); 23.3% in data set [5] (setting [11]). The “Extent of tumor growth inhibition (%)” value in data set [7] (day 15, TS-1 10 mg/kg/day as tegafur po 14 days, l-OHP 10 mg/kg iv once day 1) is on record as 4.3%. Moreover, the “Extent of body weight change (%)” value in data set [3] (day 10 vs day 0) is −8.0%; in data set [4] (day 15 vs day 0), 0.9%; in data set [5] (setting [8]) it was −18.0%; in data set [5] (setting [9]) it was −20.6%; in data set [5] (setting [10]), −19.0%; in data set [5] (setting [11]), −16.8%. For the same compound, the “Number of dead animal” value in data set [5] (setting [8]), in data set [5] (setting [9]), in data set [5] (setting [10]) and in data set [5] (setting [11]) was 0 throughout. The same compound showed a maximum tolerable dose in data set [6] of 4.2 mg/kg/day. The “antitumor effect on the multidrug-resistant tumor (in words)” value in data set [7] (l-OHP alone, 10 mg/kg iv once day 1) was “barely shows any antitumor effect”.
